Reference: US20120238019A1, “STEM CELL CULTURE MEDIA FOR MAINTAINING STEMNESS OR INDUCING DIFFERENTIATION OF STEM CELLS” (COLLEGE OF MEDICINE POCHON CHA UNIVERSITY INDUSTRY-ACADEMIC …, priority 2011, published 2012)

What was measured:
[1] = test system: human embryonic stem cells (CHA6 cell line); assay: Evaluation of stemness of stem cells cultured in MEF medium (differentiation-inducing) containing PKC inhibitor; type: cell-based; conditions: 5 to 7 days
Method: (§1) Colony clumps (5 colony clumps) of human embryonic stem cells (CHA6 cell line, CHA Medical University, Korea) were seeded to each wells of a 96-well plate coated with Matrigel (BD Biosciences, USA). A differentiation-inducing medium, i.e., MEF medium [Dulbecco's Modified Eagle Medium (DMEM) containing high glucose (WeIGENE, Korea) supplemented with 10% (v/v) FBS (WeIGENE, Korea), 1% (v/v) Penicillin/streptomycin (Caisson), 1% (v/v) NEAA (GIBCO), 0.1 mM beta-mercaptoethanol (GIBCO)], was added to the each wells, which were then cultured at about 37° C., in about 5.0% CO2 incubator. The culture was performed for 5 to 7 days, while replacing the medium with a new medium containing 5 uM of 3-[1-[3-(dimethylamino)propyl]-5-methoxy-1H-indol-3-yl]-4-(1H-indol-3-yl)-1H-pyrrole-2,5-dione)(Gö6983, Calbiochem) as a PKC inhibitor, everyday.
As a control, human embryonic stem cells were cultured in the MEF medium without the PKC inhibitor. And also, human embryonic stem cells were cultured in a differentiation-inhibiting medium, i.e., mTeSR-1 medium containing bFGF, TGF-beta, LiCl, GABA, and pipecolic acid (StemCell Technologies, USA). […]

[2] = test system: human embryonic stem cells (CHA6 cell line); assay: Evaluation of stemness of stem cells cultured in non-conditioned medium containing PKC inhibitor; type: cell-based
Method: as §1, with “The culture was performed for 5 to 7 days, while replacing the medium with a new medium containing 5 uM of 3-[1-[3-(dimethylamino)propyl]-5-methoxy-1H-indol-3-yl]-4-(1H-indol-3-yl)-1H-pyrrole-2,5-dione)(Gö6983, Calbiochem) as a PKC inhibitor, everyday.” left out
Evaluations of stemness were also performed in accordance with the same procedures as in the above (1), using a non-conditioned medium [DMEM/F-12 high-glucose (GIBCO) supplemented with 20% (v/v) knockout serum replacement (GIBCO), 1% (v/v) Penicillin/streptomycin (Caisson), 1% (v/v) NEAA(GIBCO), and 0.1 mM beta-mercaptoethanol (GIBCO)], instead of the MEF medium. In addition, expression levels of Oct4 (Octamer Binding Transcription Factor-4), which is another un-differentiated cell marker, were also evaluated through immunostaining with antibody against Oct4.

[3] = test system: human embryonic stem cells (CHA6 cell line); assay: Evaluation of differentiation of stem cells cultured in mTeSR-1 medium containing PKC activator; type: cell-based
Method: Colony clumps (5 colony clumps) of human embryonic stem cells (CHA6 cell line, CHA Medical University, Korea) were seeded to each wells of a 96-well plate coated with Matrigel (BD Biosciences, USA). A undifferentiation-maintaining medium, i.e., mTeSR-1 medium containing bFGF, TGF-beta, LiCl, GABA, and pipecolic acid (StemCell Technologies, USA), was added to the each wells, which were then cultured at about 37° C., in about 5.0% CO2 incubator. The culture was performed for 5 to 7 days, while replacing the medium with a new medium containing 10 nM of 12-O-tetradecanoylphorbol-13-acetate (TPA) as a PKC activator, everyday. As a control, human embryonic stem cells were cultured in the mTeSR-1 medium without the PKC activator. And also, human embryonic stem cells were cultured in the mTeSR-1 medium treated with both 10 nM of TPA and 5 uM of Go6983.
The cells cultured in the mTeSR-1 medium formed colony shapes, which were conglomerating each other, without differentiation (a in FIG. 3).
As a result of alkaline phosphatase staining, the staining level and colony shape of the cells cultured in the mTeSR-1 medium were similar to those of undifferentiated stem cells (d in FIG. 3).

[4] = test system: human embryonic stem cells (CHA6 cell line); assay: Evaluation of differentiation of stem cells in other undifferentiation-maintaining mediums containing PKC activator; type: cell-based; conditions: FIG. 4
Method: Colony clumps (5 colony clumps) of human embryonic stem cells (CHA6 cell line, CHA Medical University, Korea) were seeded to each wells of a 96-well plate coated with Matrigel (BD Biosciences, USA). […] The culture was performed for 5 to 7 days, while replacing the medium with a new medium containing 10 nM of 12-O-tetradecanoylphorbol-13-acetate (TPA) as a PKC activator, everyday. […]
Evaluations of differentiation were also performed in accordance with the same procedures as in the above (1), using other undifferentiation-maintaining mediums, [i.e., Matrigel (extracellular matrix)/MEF-conditioned medium (Home made; Serum-free media [80% (v/v) DMEM/F12 (GIBCO), 20% (v/v) Knockout serum replacement (GIBCO), 1% (v/v) MEM non-essential amino acids (GIBCO), 0.1 mM β-mercaptoethanol (GIBCO), 1% (v/v) Pennicillin/streptomycin (Caisson)] was conditioned by γ-irradiated CF-1 mouse embryonic fibroblasts (MEF) at 37° C. for 24 hours) and CELLstart (extracellular matrix) (Invitrogen)/and STEMPRO (Invitrogen)], […] In addition, differentiation of other hESC, i.e., H9 hESC line (WiCell, Wis., USA) was also evaluated in the Matrigel (extracellular matrix)/MEF-conditioned medium with a PKC activator.

[5] = test system: H9 hESC line; assay: Evaluation of differentiation of H9 hESC line in Matrigel/MEF-conditioned medium with PKC activator; type: cell-based, human; conditions: FIG. 4

Compound	shape, existence and distribution of the cells (optical microscope, nucleus-staining with DAPI) ([1]; 5 uM PKC inhibitor replaced everyday, Matrigel-coated, FIG. 1 a-f)	alkaline phosphatase expression level (un-differentiated cell marker, staining) ([1]; 5 uM PKC inhibitor, FIG. 1 g-i)	alkaline phosphatase expression level ([2]; NCM containing Gö6983, FIG. 2A f)	Oct4 expression level (immunostaining) ([2]; NCM containing Gö6983, FIG. 2B c)	cell shape under co-treatment with PKC activator (inhibition of TPA-induced differentiation) ([3]; mTeSR-1 medium treated with both 10 nM TPA and 5 uM Gö6983, FIG. 3 c and f)	differentiation, shape and distribution of the cells (optical microscope) ([3]; mTeSR-1 medium, 10 nM TPA replaced everyday, 5 to 7 days, FIG. 3 b)	alkaline phosphatase staining level ([3]; mTeSR-1 medium, 10 nM TPA, FIG. 3 e)	induction of differentiation of hESCs ([4]; CELLstart/STEMPRO medium with PKC activator)	induction of differentiation of hESCs ([4]; Matrigel/MEF-conditioned medium with PKC activator)	induction of differentiation of hESCs [5]
COc1ccc2c(c1)c(C1=C(c3c[nH]c4ccccc34)C(=O)NC1=O)cn2CCCN(C)C [Gö6983, 3-[1-[3-(dimethylamino)propyl]-5-methoxy-1H-indol-3-yl]-4-(1H-indol-3-yl)-1H-pyrrole-2,5-dione]	maintained colony shapes, which were conglomerating each other	significant increase in alkaline phosphatase expression level	significant increases	significant increases	shapes similar to undifferentiated stem cells					
CCCCCCCCCCCCCC(=O)O[C@@H]1[C@@H](C)[C@@]2(O)[C@@H](C=C(CO)C[C@]3(O)C(=O)C(C)=C[C@@H]23)[C@@H]2C(C)(C)[C@]12OC(C)=O [TPA, 12-O-tetradecanoylphorbol-13-acetate]						differentiated and broadly distributed	very low alkaline phosphatase staining level	induced differentiation of hESCs	induced differentiation of hESCs	induction of differentiation by the PKC activator was also observed
